{"source": "paper PMC6718988", "about": "“Bioactivity and Bactericidal Mechanism of Histidine-Rich β-Hairpin Peptide Against Gram-Negative Bacteria” (International Journal of Molecular Sciences, 2019)", "key": {"[1]": {"assay": "LPS binding assay (BODIPY-TR-cadaverine displacement)", "parameters": "species or system E. coli", "conditions": "peptide concentration higher than 4 μM; 50 μg/mL LPS, 5 μg/mL BODIPY-TR cadaverine, Tris 50 mM pH 7.4; 100% = 10 μg/mL polymyxin B", "protocol": "The abilities of the antimicrobial peptides to bind LPS were determined using the fluorescent dye BODIPY-TR-cadaverine (BC) substitution method. LPS (50 μg/mL) from E. coli O111:B4 was incubated with BC (5 μg/mL) in Tris buffer (50 mm, pH 7.4) for 4 h. Next, 50 μL of various concentrations of peptides (final concentration of 1–64 μM) and 50 μL of LPS-BC mixture were added to 96-well plates, and the fluorescence was measured using a fluorescence spectrophotometer (Infinite 200 pro, Tecan, China) at an excitation wavelength of 580 nm and an emission wavelength of 620 nm. Each test was performed three times. The values were converted to %∆F (AU) using the following equation:%ΔF (AU) = [(Fobs − F0)/(F100 − F0)] × 100 where Fobs is the fluorescence value measured in the presence of the peptide, F0 is the initial fluorescence of LPS with BC without the addition of peptides, F100 is the fluorescence value produced by adding 10 μg/mL polymyxin B."}, "Gram-negative bacteria": {"tested_on": "Gram-negative bacteria", "assay": "MICs against Gram-negative strains (geometric mean, range)", "assay_type": "cell-based", "protocol": "(§1) The minimum inhibitory concentration (MIC) was measured using a broth microdilution method to determine the in vitro antimicrobial activity of the peptides. Bacteria were inoculated into MHB and incubated overnight at 37 °C until the bacteria were in log phase growth. Next, we corrected the bacterial concentration to approximately 1 × 10^5 CFU/mL using MHB. The peptides were added to 96-well plates containing 0.01% acetic acid and 0.2% bovine serum albumin at final concentrations ranging from 0.25 to 128 μM. After incubation at 37 °C for 24 h, the absorbance was measured at 492 nm using a microplate reader (Tecan GENios F129004, Tecan, Austria). Broth containing microbes and […] were used as positive and negative controls, respectively. The lowest peptide concentration with no increase in absorbance compared to that of the negative control was defined as the MIC. The experiments were independently performed three times."}, "Gram-positive bacteria": {"tested_on": "Gram-positive bacteria", "conditions": "24 h", "protocol": "as §1"}, "[2]": {"tested_on": "Gram-positive and Gram-negative bacteria", "conditions": "24 h", "protocol": "as §1"}, "E. coli ATCC25922 [3]": {"tested_on": "E. coli ATCC25922", "assay": "Membrane depolarization (diSC3-5)", "assay_type": "cell-based", "conditions": "E. coli ATCC25922, 0.5, 1 and 2×MIC", "protocol": "The effects of the antimicrobial peptides on the plasma membrane potential were determined used cell membrane potential-sensitive fluorescent dye diSC3-5. Briefly, E. coli ATCC25922 cells were incubated in MHB to mid-log phase at 37 °C, rinsed 3 times with HEPES buffer, adjusted to an OD600 of 0.05. Next, KCl was used to adjust the final concentration to 0.4 μM and diSC3-5 was added. The mixture was incubated for 30 min at 37 °C. The antibacterial peptides at concentrations of 0.5, 1 and 2×MIC were then added to a cuvette containing 2 mL of bacterial solution, and the fluorescence change was recorded from 0 to 600 s with an F-4500 fluorescence spectrophotometer (Hitachi, Tokyo, Japan) (excitation λ = 622 nm, emission λ = 670 nm). Bacteria without antimicrobial peptides were used to determine the background fluorescence."}, "E. coli ATCC25922 [4]": {"tested_on": "E. coli ATCC25922", "assay": "Swimming motility assay", "assay_type": "cell-based", "conditions": "E. coli ATCC25922, 0.3% agar, 1–8 μM peptide, 37 °C, 20 h; versus untreated control", "protocol": "The cell motility assay was performed on LB medium containing 0.3% agar. The peptides were added to 10 mL of medium at final concentrations of 1–8 μM. After mixing well, the mixtures were poured into 6-well plates and dried for 2 h. Subsequently, an overnight culture of E. coli ATCC 25922 was inoculated in the center of the movement plate. After incubation at 37 °C for 20 h, images were taken using a FluoroChemQ system (Cell biosciences, San Jose, CA, USA). The experiment was independently repeated three times."}, "E. coli ATCC25922 [5]": {"tested_on": "E. coli ATCC25922", "assay": "SEM characterization of cell morphology", "assay_type": "cell-based", "conditions": "E. coli ATCC25922, 1 × MIC (HV2 8 μM, PG-1 4 μM), 1 h", "protocol": "For the SEM sample preparation, E. coli ATCC25922 cells were cultured at 37 °C to mid-log phase in MH broth with constant shaking at 220 rpm, centrifuged at 1000 g and then adjusted to an OD600 of 0.1–0.2 in PBS. […] Bacteria incubated with PBS served as controls. After the incubation, the mixture was centrifuged at 5000 g for 5 min, and the collected bacteria were washed three times with PBS. Approximately 2.5% (w/v) glutaraldehyde was added for fixation at 4 °C overnight, followed by washing three times with PBS. The samples were dehydrated with 50%, 70%, 90%, 100% ethanol for 10 min. A mixture of ethanol and tert-butanol was added to the dried bacterial cells for 30 min, and then t-butanol was added for 1 h. Finally, the samples were dehydrated and coated with liquid CO2 in a critical point dryer and then observed using a Hitachi S-4800 SEM (Hitachi, Tokyo, Japan)."}, "E. coli ATCC25922 [6]": {"tested_on": "E. coli ATCC25922", "assay": "Salt sensitivity assay (MIC in presence of physiological salts)", "assay_type": "cell-based", "parameters": "unit not given here", "protocol": "Bacteria were inoculated into MHB and incubated overnight at 37 °C until the bacteria were in log phase growth. Next, we corrected the bacterial concentration to approximately 1 × 10^5 CFU/mL using MHB. […] After incubation at 37 °C for 24 h, the absorbance was measured at 492 nm using a microplate reader (Tecan GENios F129004, Tecan, Austria). Broth containing microbes and […] were used as positive and negative controls, respectively. The lowest peptide concentration with no increase in absorbance compared to that of the negative control was defined as the MIC. The experiments were independently performed three times. The effects of salt ions on the antibacterial activities of the antimicrobial peptides were evaluated. Different salt ion concentrations were added to BSA peptide dilutions, and the next steps followed the MIC measurement method. […] These tests were independently repeated three times."}}, "note": "Where a SMILES comes first, the peptide text is derived from it. [ ]: non-standard residue; d: D form.", "data": [{"molecule": "CC(C)[C@H](NC(=O)CNC(=O)[C@H]1CCCN1C(=O)[C@@H](NC(=O)[C@H](Cc1c[nH]cn1)NC(=O)[C@@H](NC(=O)[C@H](Cc1c[nH]cn1)NC(=O)[C@@H](NC(=O)[C@H](CCCNC(=N)N)NC(=O)[C@@H](N)CCCNC(=N)N)C(C)C)C(C)C)C(C)C)C(=O)N[C@@H](Cc1c[nH]cn1)C(=O)N[C@H](C(=O)N[C@@H](Cc1c[nH]cn1)C(=O)N[C@H](C(=O)N[C@@H](CCCNC(=N)N)C(=O)N[C@@H](CCCNC(=N)N)C(N)=O)C(C)C)C(C)C", "note": "[HV2] (H-RRVHVHV[dP]GVHVHVRR-NH2; N-terminus assumed)", "values": [{"measurement": "LPS binding ability relative to binding activity of polymyxin B", "setting": "[1]", "result": "higher than 60%"}, {"measurement": "MBC (GM), geometric mean of MICs, Gram (−)", "setting": "Gram-negative bacteria; Gram-negative strains, 256 μM used where no activity at 128 μM", "result": 7.13, "unit": "µM"}, {"measurement": "MIC against Gram-negative bacteria", "setting": "Gram-negative bacteria; range over the Gram-negative strains of Table 2", "result": "4 to 8", "unit": "µM"}, {"measurement": "MBC (GM), geometric mean of MICs, Gram (+)", "setting": "Gram-positive bacteria", "result": 256, "unit": "µM"}, {"measurement": "MBC (GM), geometric mean of MICs, Gram (+,−)", "setting": "[2]", "result": 23.52, "unit": "µM"}, {"measurement": "plasma membrane depolarization (diSC3-5 release)", "setting": "E. coli ATCC25922 [3]", "result": "more rapid and stronger plasma membrane depolarization relative to PG-1"}, {"measurement": "swimming motility (diameter of swimming bacteria)", "setting": "E. coli ATCC25922 [4]", "result": "significantly reduced the diameter of the swimming bacteria"}, {"measurement": "cell morphology by SEM", "setting": "E. coli ATCC25922 [5]", "result": "rough and wrinkled"}, {"measurement": "MIC, FeCl3", "setting": "E. coli ATCC25922 [6]; E. coli ATCC25922, 4 μM FeCl3, unit not given", "result": 4}, {"measurement": "MIC, NH4Cl", "setting": "E. coli ATCC25922 [6]; E. coli ATCC25922, 6 μM NH4Cl, unit not given", "result": 4}, {"measurement": "MIC, ZnCl2", "setting": "E. coli ATCC25922 [6]; E. coli ATCC25922, 8 μM ZnCl2, unit not given", "result": 1}, {"measurement": "MIC, MgCl2", "setting": "E. coli ATCC25922 [6]; E. coli ATCC25922, 1 mM MgCl2, unit not given", "result": 8}, {"measurement": "MIC, KCl", "setting": "E. coli ATCC25922 [6]; E. coli ATCC25922, 4.5 mM KCl, unit not given", "result": 4}, {"measurement": "MIC, NaCl", "setting": "E. coli ATCC25922 [6]; E. coli ATCC25922, 150 mM NaCl, unit not given", "result": 4}, {"measurement": "MIC, Control", "setting": "E. coli ATCC25922 [6]; E. coli ATCC25922, absence of physiological salts, no unit printed in Table 3 (Table 2 MIC in μM)", "result": 8}]}]}
